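Cells were grown in 96-well plates and exposed to each compound for 48 hours at five concentrations; endpoints were interpolated linearly between bracketing concentrations, or set to the highest concentration if not reached. Abbreviation: GI50, concentration required for 50% inhibition of growth. TGI: total growth inhibition.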
Key:
Test in all cases: NCI-60 cell line screen, 48 h
786-0 renal = system: 786-0 renal
A498 renal = system: A498 renal
A549 NSCLC = system: A549 NSCLC
ACHN renal = system: ACHN renal
BT-549 breast = system: BT-549 breast
COLO 205 colon = system: COLO 205 colon
DU-145 prostate = system: DU-145 prostate
EKVX NSCLC = system: EKVX NSCLC
HCC-2998 colon = system: HCC-2998 colon
HCT-116 colon = system: HCT-116 colon
HCT-15 colon = system: HCT-15 colon
HL-60(TB) leukemia = system: HL-60(TB) leukemia
HOP-62 NSCLC = system: HOP-62 NSCLC
HS 578T breast = system: HS 578T breast
HT29 colon = system: HT29 colon
IGROV1 ovarian = system: IGROV1 ovarian
K-562 leukemia = system: K-562 leukemia
KM12 colon = system: KM12 colon
LOX IMVI melanoma = system: LOX IMVI melanoma
M14 melanoma = system: M14 melanoma
MALME-3M melanoma = system: MALME-3M melanoma
MCF7 breast = system: MCF7 breast
MDA-MB-231 breast = system: MDA-MB-231 breast
MDA-MB-435 = system: MDA-MB-435
MOLT-4 leukemia = system: MOLT-4 leukemia
NCI-H226 lung = system: NCI-H226 lung
NCI-H460 lung = system: NCI-H460 lung
NCI-H522 lung = system: NCI-H522 lung
NCI/ADR-RES ovarian = system: NCI/ADR-RES ovarian
OVCAR-3 ovarian = system: OVCAR-3 ovarian
OVCAR-4 ovarian = system: OVCAR-4 ovarian
OVCAR-5 ovarian = system: OVCAR-5 ovarian
OVCAR-8 ovarian = system: OVCAR-8 ovarian
RXF 393 renal = system: RXF 393 renal
SF-268 CNS = system: SF-268 CNS
SF-295 CNS = system: SF-295 CNS
SF-539 CNS = system: SF-539 CNS
SK-MEL-2 melanoma = system: SK-MEL-2 melanoma
SK-MEL-28 melanoma = system: SK-MEL-28 melanoma
SK-MEL-5 melanoma = system: SK-MEL-5 melanoma
SK-OV-3 ovarian = system: SK-OV-3 ovarian
SN12C renal = system: SN12C renal
SNB-19 CNS = system: SNB-19 CNS
SNB-75 CNS = system: SNB-75 CNS
SW-620 colon = system: SW-620 colon
TK-10 renal = system: TK-10 renal
U251 CNS = system: U251 CNS
UACC-257 melanoma = system: UACC-257 melanoma
UACC-62 melanoma = system: UACC-62 melanoma
UO-31 renal = system: UO-31 renal

CCN(CC)CCCCCOc1cc(O)c2c(=O)cc(-c3ccccc3)oc2c1
GI50 (786-0 renal): 1.97 µM | TGI (786-0 renal): 3.81 µM | GI50 (A498 renal): 2.46 µM | TGI (A498 renal): 9.48 µM | GI50 (A549 NSCLC): 5.26 µM | TGI (A549 NSCLC): 18.5 µM | GI50 (ACHN renal): 3.72 µM | TGI (ACHN renal): 11.7 µM | GI50 (BT-549 breast): 12.5 µM | TGI (BT-549 breast): 26.5 µM | GI50 (COLO 205 colon): 2.13 µM | TGI (COLO 205 colon): 5.02 µM | GI50 (DU-145 prostate): 4.61 µM | TGI (DU-145 prostate): 17.4 µM | GI50 (EKVX NSCLC): 6.93 µM | TGI (EKVX NSCLC): 23.6 µM | GI50 (HCC-2998 colon): 0.386 µM | TGI (HCC-2998 colon): 2.35 µM | GI50 (HCT-116 colon): 1.74 µM | TGI (HCT-116 colon): 3.52 µM | GI50 (HCT-15 colon): 1.58 µM | TGI (HCT-15 colon): 3.76 µM | GI50 (HL-60(TB) leukemia): 2.67 µM | TGI (HL-60(TB) leukemia): 7.1 µM | GI50 (HOP-62 NSCLC): 2.43 µM | TGI (HOP-62 NSCLC): 9.71 µM | GI50 (HS 578T breast): 15.6 µM | TGI (HS 578T breast): 42.7 µM | GI50 (HT29 colon): 2.21 µM | TGI (HT29 colon): 5.5 µM | GI50 (IGROV1 ovarian): 2.08 µM | TGI (IGROV1 ovarian): 4.87 µM | GI50 (K-562 leukemia): 1.86 µM | TGI (K-562 leukemia): 3.56 µM | GI50 (KM12 colon): 2.89 µM | TGI (KM12 colon): 9.37 µM | GI50 (LOX IMVI melanoma): 1.57 µM | TGI (LOX IMVI melanoma): 2.96 µM | GI50 (M14 melanoma): 1.71 µM | TGI (M14 melanoma): 3.1 µM | GI50 (MALME-3M melanoma): 1.86 µM | TGI (MALME-3M melanoma): 4.2 µM | GI50 (MCF7 breast): 1.66 µM | TGI (MCF7 breast): 3.83 µM | GI50 (MDA-MB-231 breast): 1.49 µM | TGI (MDA-MB-231 breast): 4.34 µM | GI50 (MDA-MB-435): 3.18 µM | TGI (MDA-MB-435): 7.63 µM | GI50 (MOLT-4 leukemia): 3.76 µM | TGI (MOLT-4 leukemia): 11.2 µM | GI50 (NCI-H226 lung): 10.5 µM | TGI (NCI-H226 lung): 25.8 µM | GI50 (NCI-H460 lung): 2.24 µM | TGI (NCI-H460 lung): 5.48 µM | GI50 (NCI-H522 lung): 2.23 µM | TGI (NCI-H522 lung): 5.13 µM | GI50 (NCI/ADR-RES ovarian): 3.06 µM | TGI (NCI/ADR-RES ovarian): 11.6 µM | GI50 (OVCAR-3 ovarian): 1.93 µM | TGI (OVCAR-3 ovarian): 4.94 µM | GI50 (OVCAR-4 ovarian): 7.27 µM | TGI (OVCAR-4 ovarian): 20.5 µM | GI50 (OVCAR-5 ovarian): 2.37 µM | TGI (OVCAR-5 ovarian): 6.97 µM | GI50 (OVCAR-8 ovarian): 11.5 µM | TGI (OVCAR-8 ovarian): 25.5 µM | GI50 (RXF 393 renal): 1.6 µM | TGI (RXF 393 renal): 3.37 µM | GI50 (SF-268 CNS): 7.82 µM | TGI (SF-268 CNS): 25.5 µM | GI50 (SF-295 CNS): 2.87 µM | TGI (SF-295 CNS): 5.69 µM | GI50 (SF-539 CNS): 2.43 µM | TGI (SF-539 CNS): 6.01 µM | GI50 (SK-MEL-2 melanoma): 3.23 µM | TGI (SK-MEL-2 melanoma): 11.4 µM | GI50 (SK-MEL-28 melanoma): 1.62 µM | TGI (SK-MEL-28 melanoma): 3.07 µM | GI50 (SK-MEL-5 melanoma): 1.91 µM | TGI (SK-MEL-5 melanoma): 3.83 µM | GI50 (SK-OV-3 ovarian): 6.95 µM | TGI (SK-OV-3 ovarian): 17.8 µM | GI50 (SN12C renal): 4.78 µM | TGI (SN12C renal): 17 µM | GI50 (SNB-19 CNS): 6.76 µM | TGI (SNB-19 CNS): 21.3 µM | GI50 (SNB-75 CNS): 13 µM | TGI (SNB-75 CNS): 25.6 µM | GI50 (SW-620 colon): 3.03 µM | TGI (SW-620 colon): 10.3 µM | GI50 (TK-10 renal): 7.1 µM | TGI (TK-10 renal): 27.1 µM | GI50 (U251 CNS): 3.16 µM | TGI (U251 CNS): 11.8 µM | GI50 (UACC-257 melanoma): 1.81 µM | TGI (UACC-257 melanoma): 3.55 µM | GI50 (UACC-62 melanoma): 1.74 µM | TGI (UACC-62 melanoma): 3.15 µM | GI50 (UO-31 renal): 1.85 µM | TGI (UO-31 renal): 3.64 µM

From PubChem BioAssay (NCI)
